From patent US7151105B2, “Inhibitors of Hepatitis C virus RNA-dependent RNA polymerase, and compositions and treatments using the same” (Agouron Pharmaceuticals, Inc., priority 2004, dated 2006)

Target: T1, Recombinant HCV polymerase (Hepatitis C virus genotype 1b, UniProt P26663)
T1 construct: Recombinant HCV polymerase was tested for its ability to perform primer/template-directed transcription
Experiment: biochemical
Details: inhibition of polymerase-directed transcription; 30 min at 30° C; 30 nM enzyme; cpm data in triplicate
Method: The compounds described herein were tested for activity with HCV polymerase. Recombinant HCV polymerase was tested for its ability to perform primer/template-directed transcription in assays that contained 30 mM tris-HCl pH 7.2, 10 mM MgCl2, 20 mM NaCl, 1 mM Dithiothreitol (DTT), 0.05% Tween-20, 1% glycerol, 5 pmoles biotin-dG12 (primer), 0.5 pmoles poly(rC)300 (template), 1 μM GTP, 0.1–0.3 uCi α-^32P-GTP, and 2.5 pmoles (0.15 μg) HCV polymerase protein in a final volume of 75 μL. Reactions were initiated by addition of enzyme and incubated 30 minutes at 30° C. Reactions were stopped by addition of 33 mM EDTA, and polynucleotide products were collected by filtration through Diethylaminoethyl (DE) Filtermat papers (Wallac). Unincorporated triphosphate was removed by washing the filters with 5% dibasic sodium phosphate. The filters were counted in a Packard Tri-Lux Microbeta scintillation counter (Packard Bioscience, Meriden, Conn.). Compounds to be tested were added at various concentrations, e.g., 1 μm to 50 μm, from stocks in 10% DMSO-water (final DMSO is 1% in reaction).
IC50 values were estimated from the primary cpm data (collected in triplicate) using the formula: cpm (I)=cpm (no inhibitor)(1−([I]/([I]+IC50))). […] A percent inhibition value is expressed for a compound where it was impractical to calculate an IC50 value with available data.

T1 sequence (P26663 2420-3010): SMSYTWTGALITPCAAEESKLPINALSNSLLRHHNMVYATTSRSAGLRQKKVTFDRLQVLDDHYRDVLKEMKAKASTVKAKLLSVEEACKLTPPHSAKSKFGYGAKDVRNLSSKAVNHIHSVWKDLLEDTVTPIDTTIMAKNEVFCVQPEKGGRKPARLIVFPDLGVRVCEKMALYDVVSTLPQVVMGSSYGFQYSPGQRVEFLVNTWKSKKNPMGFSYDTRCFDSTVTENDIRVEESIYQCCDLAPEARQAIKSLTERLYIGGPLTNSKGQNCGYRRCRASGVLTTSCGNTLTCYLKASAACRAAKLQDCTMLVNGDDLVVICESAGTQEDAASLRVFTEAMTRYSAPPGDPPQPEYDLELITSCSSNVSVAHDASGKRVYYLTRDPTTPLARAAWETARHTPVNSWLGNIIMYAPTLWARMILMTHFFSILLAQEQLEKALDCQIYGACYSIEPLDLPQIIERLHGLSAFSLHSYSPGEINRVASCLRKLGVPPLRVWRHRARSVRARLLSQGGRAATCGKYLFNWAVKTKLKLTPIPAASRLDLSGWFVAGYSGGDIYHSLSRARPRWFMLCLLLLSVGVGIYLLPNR

SMILES	IC50 [nM]
CCc1cc(CCC2(C3CCCC3)CC(O)=C(Cc3nc4ncc(C)cn4n3)C(=O)O2)c(OC)cn1 (centres unmarked) [A(4), 6-Cyclopentyl-6-[2-(2-ethyl-5-methoxypyridin-4-yl)ethyl]-4-hydroxy-3-[(6-methyl[1,2,4]triazolo[1,5-a]pyrimidin-2-yl)methyl]-5,6-dihydro-2H-pyran-2-one]	7
CCc1ccc(OC)c(CCC2(C3CCCC3)CC(=O)CC(=O)O2)n1 (centres unmarked) [A(5), 6-Cyclopentyl-6-[2-(6-ethyl-3-methoxypyridin-2-yl)ethyl]dihydro-2H-pyran-2,4(3H)-dione]	8600
CCc1ccc(OC)c(CCC2(C3CCCC3)CC(O)=C(Cc3nc4nc(C)cc(C)n4n3)C(=O)O2)n1 (centres unmarked) [A(6), 6-Cyclopentyl-3-[(5,7-dimethyl[1,2,4]triazolo[1,5-a]pyrimidin-2-yl)methyl]6-[2-(6-ethyl-3-methoxypyridin-2-yl)ethyl]4-hydroxy-5,6-dihydro-2H-pyran-2-one]	39
COc1cnc(C)cc1CCC1(C2CCCC2)CC(=O)CC(=O)O1 (centres unmarked) [A(7), 6-Cyclopentyl-6-[2-(5-methoxy-2-methylpyridin-4-yl)ethyl]dihydro-2H-pyran-2,4(3H)dione]	11300
COc1cnc(C)cc1CCC1(C2CCCC2)CC(O)=C(Cc2nc3nc(C)cc(C)n3n2)C(=O)O1 (centres unmarked) [A(8), 6-Cyclopentyl-3-[(5,7-dimethyl[1,2,4]triazolo[1,5-a]pyrimidin-2-yl)methyl]-4-hydroxy-6-[2-(5methoxy-2-methylpyridin-4-yl)ethyl]-5,6-dihydro-2H-pyran-2-one]	99
Cc1cc(C)n2nc(CC3=C(O)CC(CCc4cc(CC(F)(F)F)nc(CC(F)(F)F)c4)(C4CCCC4)OC3=O)nc2n1 (centres unmarked) [A(9), 6-{2-[2,6-Bis(2,2,2-trifluoroethyl)pyridin-4-yl]ethyl}-6-cyclopentyl-3-[(5,7-dimethyl[1,2,4]triazolo[1,5-a]pyrimidin-2-yl)methyl]-4-hydroxy-5,6-dihydro-2H-pyran-2-one]	5
CCc1cncc(CCC2(C3CCCC3)CC(O)=C(Cc3nc4nc(C)cc(C)n4n3)C(=O)O2)c1 (centres unmarked) [A(14), 6-Cyclopentyl-3-[(5,7-dimethyl[1,2,4]triazolo[1,5-a]pyrimidin-2-yl)methyl]-6-[2-(5-ethylpyridin-3-yl)ethyl]-4-hydroxy-5,6dihydro-2H-pyran-2-one]	8
CCc1ccnc(CCC2(C3CCCC3)CC(O)=C(Cc3nc4nc(C)cc(C)n4n3)C(=O)O2)c1 (centres unmarked) [A(15), 6-Cyclopentyl-3-[(5,7-dimethyl[1,2,4]triazolo[1,5-a]pyrimidin-2-yl)methyl]-6-[2-(4-ethylpyridin-2-yl)ethyl]-4-hydroxy-5,6-dihydro-2H-pyran-2-one]	7
CCc1ccnc(CCC2(C3CCCC3)CC(O)=C(Cc3nc4ncc(C)cn4n3)C(=O)O2)c1 (centres unmarked) [A(16), 6-Cyclopentyl-6-[2-(4-ethylpyridin-2-yl)ethyl]-4-hydroxy-3-[(6-methyl[1,2,4]triazolo[1,5-a]pyrimidin-2-yl)methyl]-5,6-dihydro-2H-pyran-2-one]	55
Cc1cc(CCC2(C3CCCC3)CC(O)=C(Cc3nc4nc(C)cc(C)n4n3)C(=O)O2)cc(C)n1 (centres unmarked) [A(18), 6-Cyclopentyl-6-[2-(2,6-dimethylpyridin-4-yl)ethyl]-3[(5,7-dimethyl[1,2,4]triazolo[1,5-a]pyrimidin-2-yl)methyl]-4-hydroxy-5,6dihydro-2H-pyran-2-one]	170
CCc1ccc(CCCOC)c(CCC2(C3CCCC3)CC(O)=C(Cc3nc4nc(C)cc(C)n4n3)C(=O)O2)c1 (centres unmarked) [A(19), 6Cyclopentyl-3-[(5,7-dimethyl[1,2,4]triazolo[1,5-a]pyrimidin-2-yl)methyl]-6-{2-[5-ethyl-2-(3-methoxypropyl)phenyl]ethyl}-4-hydroxy-5,6dihydro-2H-pyran-2-one]	12
CCc1cc(CCC2(C3CCCC3)CC(O)=C(Cc3nc4nc(C)cc(C)n4n3)C(=O)O2)ccc1CCCOC (centres unmarked) [A(20), 6-Cyclopentyl-3-[(5,7-dimethyl[1,2,4]triazolo[1,5-a]pyrimidin-2-yl)methyl]=6-{2-[3-ethyl-4-(3-methoxypropyl)phenyl]ethyl} -4-hydroxy-5,6-dihydro-2H-pyran-2-one]	9
CCc1cc(CC[C@]2(C3CCCC3)CC(O)=C(Cc3nc4ncc(C)cn4n3)C(=O)O2)c(O)cc1O [A(21), (6R)-6-cyclopentyl-6-[2-(5-ethyl-2,4dihydroxyphenyl)ethyl]-4-hydroxy-3-[(6-methyl[1,2,4]triazolo[1,5-a]pyrimidin-2-yl)methyl]-5,6-dihydro-2H-pyran-2-one]	1
CCOc1cc(O)c(CC)cc1CCC1(C2CCCC2)CC(O)=C(Cc2nc3nc(C)cc(C)n3n2)C(=O)O1 (centres unmarked) [A(22), 6-Cyclopentyl-3-[(5,7-dimethyl[1,2,4]triazolo[1,5-a]pyrimidin-2-yl)methyl]-6-[2-(2-ethoxy-5-ethyl-4-hydroxyphenyl)ethyl]-4-hydroxy-5,6-dihydro-2H-pyran-2-one]	4
COc1ccc(CCC2(C3CCCC3)CC(O)=C(Cc3nc4nc(C)cc(C)n4n3)C(=O)O2)cc1C(F)(F)F (centres unmarked) [A(23), 6-Cyclopentyl-3-[(5,7-dimethyl[1,2,4]triazolo[1,5-a]pyrimidin-2-yl)methyl]-4-hydroxy-6-{2-[4-methoxy-3-(trifluoromethyl)phenyl]ethyl}-5,6-dihydro-2H-pyran-2-one]	6
CCc1cc(CCC2(C3CCCC3)CC(O)=C(Cc3nc4nc(C)cc(C)n4n3)C(=O)O2)c(OC)cc1OC (centres unmarked) [A(24), 6-Cyclopentyl-3-[(5,7-dimethyl[1,2,4]triazolo[1,5-a]pyrimidin-2-yl)methyl]-6-[2-(5-ethyl-2,4-dimethoxyphenyl)ethyl]-4-hydroxy-5,6-dihydro-2H-pyran-2-one]	14
CC(=O)NCc1ccc(CCC2(C3CCCC3)CC(O)=C(Cc3nc4nc(C)cc(C)n4n3)C(=O)O2)cc1F (centres unmarked) [A(25), N-[4-(2-{2-Cyclopentyl-5-[(5,7-dimethyl[1,2,4]triazolo[1,5-a]pyrimidin-2-yl)methyl]-4-hydroxy-6-oxo-3,6dihydro-2H-pyran-2-yl}ethyl)-2-fluorobenzyl]acetamide]	100
CCOc1cc(O)c(CC)cc1CCC1(C2CCCC2)CC(O)=C(Cc2nc3ncc(C)cn3n2)C(=O)O1 (centres unmarked) [A(26), 6-Cyclopentyl-6-[2-(2-ethoxy-5-ethyl-4-hydroxyphenyl)ethyl]-4-hydroxy-3-[(6-methyl[1,2,4]triazolo[1,5-a]pyrimidin-2-yl)methyl]-5,6-dihydro-2H-pyran-2-one]	4
CCOc1cnc(CC)cc1CCC1(C2CCCC2)CC(O)=C(Cc2nc3nc(C)cc(C)n3n2)C(=O)O1 (centres unmarked) [A(27), 6-Cyclopentyl-3-[(5,7-dimethyl[1,2,4]triazolo[1,5-a]pyrimidin-2-yl)methyl]-6-[2-(5-ethoxy-2-ethylpyridin-4-yl)ethyl]-4-hydroxy-5,6-dihydro-2H-pyran-2-one]	3
Cc1cc(C)n2nc(CC3=C(O)CC(CCc4ccc(O)c(C(F)(F)F)c4)(C4CCCC4)OC3=O)nc2n1 (centres unmarked) [A(28), 6-Cyclopentyl-3-[(5,7-dimethyl[1,2,4]triazolo[1,5-a]pyrimidin-2-yl)methyl]-4-hydroxy-6-{2-[4-hydroxy-3-(trifluoromethyl)phenyl]ethyl}-5,6dihydro-2H-pyran-2-one]	2
Cc1cc(C)n2nc(CC3=C(O)CC(CCc4ccc(C(C)(C)NS(C)(=O)=O)c(F)c4)(C4CCCC4)OC3=O)nc2n1 (centres unmarked) [A(29), N-{1-[4-(2-{2-cyclopentyl-5-[(5,7-dimethyl[1,2,4]triazolo[1,5-a]pyrimidin-2-yl)methyl]-4-hydroxy-6-oxo-3,6-dihydro-2H-pyran-2-yl}ethyl)-2-fluorophenyl]-1-methylethyl}methanesulfonamide]	17
CCc1cc(CCC2(C3CCCC3)CC(O)=C(Cc3nc4nc(C)cc(C)n4n3)C(=O)O2)c(OCC2CC2)cc1O (centres unmarked) [A(32), 6-Cyclopentyl-6-{2-[2-(cyclopropylmethoxy)-5-ethyl-4-hydroxyphenyl]ethyl}-3-[(5,7-dimethyl[1,2,4]triazolo[1,5-a]pyrimidin-2-yl)methyl]-4-hydroxy-5,6-dihydro-2H-pyran-2-one]	5
Cc1cc(C)n2nc(CC3=C(O)CC(CCc4ccnc(C(C)C)c4)(C4CCCC4)OC3=O)nc2n1 (centres unmarked) [A(33), 6Cyclopentyl-3-[(5,7-dimethyl[1,2,4]triazolo[1,5-a]pyrimidin-2-yl)methyl]-4-hydroxy-6-[2-(2-isopropylpyridin-4-yl)ethyl]-5,6-dihydro-2H-pyran-2-one]	7
CCc1cc(CCC2(C3CCCC3)CC(O)=C(Cc3nc4nc(C)cc(C)n4n3)C(=O)O2)cc(C(C)C)n1 (centres unmarked) [A(34), 6-Cyclopentyl-3-[(5,7-dimethyl[1,2,4]triazolo[1,5-a]pyrimidin-2-yl)methyl]-6-[2-(2-ethyl-6-isopropylpyridin-4-yl)ethyl]-4-hydroxy-5,6-dihydro-2H-pyran-2-one]	12
CCc1cc(CCC2(C3CCCC3)CC(O)=C(Cc3nc4nc(C)cc(C)n4n3)C(=O)O2)cc(C)n1 (centres unmarked) [A(35), 6-Cyclopentyl-3-[(5,7-dimethyl[1,2,4]triazolo[1,5-a]pyrimidin-2-yl)methyl]-6-[2-(2-ethyl-6-methylpyridin-4-yl)ethyl]-4-hydroxy-5,6-dihydro-2H-pyran-2-one]	9
CCc1cc(CCC2(C3CCCC3)CC(O)=C(Cc3nc4ncc(C)cn4n3)C(=O)O2)cc(CC)n1 (centres unmarked) [A(36)]	30
